The values that follow come from patent publication US5814467A, “APO AI polypeptides, diagnostic methods and systems for quantifying APO AI, and therapeutic methods” (The Scripps Research Institute, priority 1994, dated 1998).

Entries after “also recorded” stand apart in the source; their conditions may differ.

For experiment [1], the system named is monoclonal antibody AI-11. As to the kind of experiment: Solid-phase polypeptide direct binding ELISA. On the set-up: species or system mouse. As to conditions: peptide coated at 50 μg/ml; 0.5 μg/ml HRP-conjugated AI-11. The procedure:
Apo AI polypeptides AI84-111, AI85-111, AI90-111, AI93-111, AI94-111, AI-94-125, AI96-111, AI99-111, and AI99-114 were tested for immunoreactivity with monoclonal antibody AI-11 in a direct binding ELISA. In the assay, 50 μg/ml of each polypeptide was dissolved in PBS to form a peptide coating solution, of which 150 μl was admixed into the wells of a flexible polyvinyl chloride microtiter plate (Immulon). The wells were then maintained about 16 to 20 at 4° C. to permit the peptide to absorb onto (coat) the walls of the wells. After removing the peptide coating solution by shaking, the wells were washed once with 350 μl of rinsing buffer (PBS containing 1 g/l BSA, 0.5 ml/l Tween 20, and 2 μl/1 aprotinin). Excess protein binding sites were blocked by admixing 200 μl of blocking buffer (PBS containing 3% BSA) into each well, maintaining the wells for 1 hour at 37° C., removing the blocking buffer by shaking, and then washing the wells 3 times as previously described. The plate was then dried for 1 hour at 37° C. followed by addition of 100 μl of PBS containing 0.5 μg/ml horseradish peroxidase conjugated AI-11 antibody to form a solid-liquid phase immunoreaction admixture. The resulting solid-liquid phase immunoreaction admixture was maintained at 20° C. for 1 hour to permit formation of a solid-phase polypeptide-containing immunoreaction product. The wells were then washed 3 times with rinsing buffer to remove unbound antibody.
The amount of immunoreaction product present in the solid phase was then determined by admixing two hundred microliters of OPD substrate into each well to form a developing-reaction admixture. The admixture was maintained for 30 minutes at about 20° C. Subsequently, 50 μl of 4N H2 SO4 were admixed into each well to stop the developing-reaction, and the resulting solution was assayed for absorbance at 450 nanometers using a microtiter plate reader (Dynatech) to detect the amount of formed immunoreaction product.
Background: An ELISA detects its analyte on a solid surface through an enzyme-linked reagent.

The subject of a further experiment is MAB AI-4. Put plainly: Competitive RIA, MAB AI-4 binding to Apo AI/HDL-coated wells. The arrangement: species or system mouse. Particulars: FIG. 3 and FIG. 4. The procedure:
The immunoreactivity of MAB AI-4 for native Apo AI/HDL and various synthetic polypeptides was examined by a competitive RIA performed as follows:
(§1) One hundred μl of PBS (0.15M NaCl, 0.01M NaPO4, pH 7.2) containing 10 μg/ml Apo AI/HDL were admixed to the wells of microtiter plates. The plates were maintained for 1 hour at 20° C. on a rotating platform to allow the Apo AI/HDL to adhere to the wells and form solid supports. After aspirating excess liquid from the wells, 200 μl of block solution (3% BSA, 3% NGS in PBS) was admixed to each well, and the wells were maintained for 30 minutes at 20° C. on a rotating platform. Subsequently, the blocking solution was removed by aspiration, and the wells were washed 3 times with SPRIA buffer.
(§2) To each well was then admixed first with 50 μl of PBS containing 3% BSA and various concentrations of competitor antigen, i.e., Apo AI/HDL peptide, and, second, 50 μl of MAB AI-4 in the form of clarified ascites diluted 1:11.25×10^5 in PBS containing 3% BSA to form competitive immunoreaction admixtures. In control wells, either competing antigen or antibody was replaced by PBS containing 3% BSA.
(§3) The immunoreaction admixtures were maintained about 16 hours at 4° C. on a rotating platform to permit formation of solid-phase immunoreaction products. After washing the wells as previously described, 100 μl of ^125 I-labeled goat anti-mouse Ig (^125 I-goat anti-mouse Ig diluted to 2×10^5 trichloracetic acid precipitable disintegrations per minute per 100 μl in PBS containing 3% BSA) were admixed to each well. The labeling immunoreaction admixtures so formed were maintained for 4 hours at 4° C. on a rotating platform. Subsequently, the wells were washed with SPRIA buffer as previously described, and the amount of ^125 I-labeled solid-phase immunoreaction product formed was determined in a gamma counter.
The ability of MAB AI-4 to immunoreact with Apo AI/HDL was compared by using Apo AI/HDL and various synthetic peptides as competitors in the above-described RIA. B/Bo represents corrected CPMs which are plotted against increasing concentrations of competition in μg/ml. B/Bo values are determined in the following formula: [formula] where 0% CPM is a measure of non-specific background based on CPM obtained in RIAs where wells coated with Apo AI/HDL are reacted with the labeled secondary antibody in the absence of primary antibody and competitor, and where 100% CPM is a measure of the maximum non-competed binding of primary antibody to the substrate coated to the wells. The more efficiently a competitor binds to the primary antibody, the lower the B/Bo values.

In the next experiment the test system is MAB AI-11. As to the kind of experiment: Competitive RIA, MAB AI-11 binding to Apo AI/HDL-coated wells. On the set-up: species or system mouse. Particulars: FIG. 5 and FIG. 6. The procedure: as §1, §2, §3
The immunoreactivity of MAB AI-11 for native Apo AI/HDL and various synthetic polypeptides was examined by a competitive RIA as described in Example 10A. […] Other peptides were evaluated for their ability to immunoreact with AI-1l MAE in competitive RIAs described herein.

The next experiment deals with T1, LCAT (Homo sapiens, UniProt P04180).
T1 sequence (P04180 25-440): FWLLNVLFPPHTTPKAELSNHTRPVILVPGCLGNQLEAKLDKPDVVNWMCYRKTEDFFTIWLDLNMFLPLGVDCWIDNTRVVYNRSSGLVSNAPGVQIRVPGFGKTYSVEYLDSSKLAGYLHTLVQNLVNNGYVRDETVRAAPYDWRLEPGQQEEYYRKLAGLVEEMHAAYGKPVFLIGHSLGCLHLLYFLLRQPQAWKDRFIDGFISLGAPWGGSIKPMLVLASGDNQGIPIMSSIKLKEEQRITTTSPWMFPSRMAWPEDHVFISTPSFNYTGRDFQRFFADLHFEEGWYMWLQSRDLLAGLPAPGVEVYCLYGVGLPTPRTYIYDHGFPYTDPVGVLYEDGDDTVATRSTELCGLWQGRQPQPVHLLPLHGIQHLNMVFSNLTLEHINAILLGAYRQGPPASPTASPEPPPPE
Particulars: cited from earlier work.

Experiment [2] has as its system monoclonal antibody AI-11. Put plainly: Competition ELISA, AI-11 binding to AI96-111-coated wells. The arrangement: species or system mouse. As to conditions: FIG. 2, competitor from 1 mg/ml, serial 2-fold dilutions. The procedure: To determine the relative effectiveness of AI-11 binding to Apo AI synthetic polypeptides, a competition ELISA was performed with AI 96-111 as the test synthetic polypeptide in comparison to Apo AI-containing serum and purified Apo AI/HDL. Microtiter plates were coated with AI 96-111 as described hereinbefore. After the drying step of the assay described hereinbefore, 50 μl of a fluid sample (i.e., an Apo AI-containing fluid sample) or standard (i.e., an Apo AI polypeptide) to be assayed were admixed into the polypeptide AI96-111-coated well simultaneously with 50 μl of HRPO-conjugated AI-11 antibody to form an immunoreaction admixture. In the assay described herein, 3 competitors were tested for their ability to compete for binding of AI-11 to the AI 96-111 polypeptide coated over a range of dilutions. The polypeptide AI 96-111 was added in separate coated wells at a starting concentration of 1 mg/ml and diluted 2-fold serially 6 times down to a final concentration of 0.0156 mg/ml. Serum samples as described in Example 2 were added at a starting dilution of 1:10 and diluted 2-fold serially 6 times down to a final dilution of […]. Apo AI/HDL as described in Example 2 was added at a starting concentration of 1 mg/ml and diluted 2-fold 5 times down to a final concentration of 0.031 mg/ml. The plate was then incubated for 30 minutes at room temperature. […]

For “AI99-111: Apo AI polypeptide, residues 99-111 (PYLDDFQKKWQEE)”, the “immunoreactivity with monoclonal antibody AI-11 in direct binding ELISA” value (“immunoreactivity … in direct binding ELISA” below) in experiment [1] was “not bound by the antibody”.
As to “AI100-105: peptide derived from Apo AI, residues 100-105 (YLDDFQ)”, the “immunoreactivity with MAB AI-4, competition of binding to Apo AI/HDL” value with MAB AI-4 is listed as “did not react”. Further, the “immunoreactivity with MAB AI-11, competition of binding to Apo AI/HDL” value with MAB AI-11 is given as “do not immunoreact”.
As to “AI101-111: peptide derived from Apo AI, residues 101-111 (LDDFQKKWQEE)”, the “immunoreactivity with MAB AI-4, competition of binding to Apo AI/HDL” value in the experiment with MAB AI-4 is listed as “did not react”.
As for “Apo AI fragment residues 148-185: Apo AI fragment residues 148-185 (Sparrow et al.) (MRDRARAHVDALRTHLAPYSDELRQRLAARLEALKENG; UniProt P02647 172-209, looked up, fragment)”, the “involvement in activation of LCAT and lipid binding” value with LCAT (Sparrow et al. 1980) was “involved in both activation of LCAT and lipid binding”.
Take “Apo AI residues 121-164: synthetic polypeptide corresponding to Apo AI residues 121-164 (Fukushima et al.) (PLRAELQEGARQKLHELQEKLSPLGEEMRDRARAHVDALRTHLA; UniProt P02647 145-188, looked up, fragment)”: in the experiment with LCAT (Fukushima et al. 1980), the “effectiveness relative to native Apo AI in the activation of cholesterol esterification” value was 30%.
For the substance “Apo AI/HDL: Apo AI when it is present on HDL particles, isolated from plasma [reference compound]”, in the experiment on MAB AI-4, the “immunoreactivity with MAB AI-4, competition of binding to Apo AI/HDL” value is listed as “competitively inhibit”. Also, the “immunoreactivity with MAB AI-11, competition of binding to Apo AI/HDL” value in the experiment on MAB AI-11 was “competitively inhibit”. Also, the “competition for binding of AI-11 to coated AI96-111” value is recorded as “competitively inhibit” in experiment [2] and “greater affinity” in experiment [2] (listed as purified HDL).
Take “KAKVQPYLDDXQKKWQEEMEL (KAKVQPYLDDFQKKWQEEMEL) [AI94-114]”: in the experiment on MAB AI-4, the “immunoreactivity with MAB AI-4, competition of binding to Apo AI/HDL” value is given as “partial reactivity”.
Take “KAKVQPYLDDXQKKWQEEMELYRQKVEPLRAE (KAKVQPYLDDFQKKWQEEMELYRQKVEPLRAE) [AI94-125]”: the “immunoreactivity … in direct binding ELISA” value in experiment [1] was “specifically immunoreactive”. In addition, the “immunoreactivity with MAB AI-4, competition of binding to Apo AI/HDL” value with MAB AI-4 is reported as “better competitor; also recorded: competitively inhibit; also recorded: immunoreacts”. Moreover, the “immunoreactivity with MAB AI-11, competition of binding to Apo AI/HDL” value in the experiment on MAB AI-11 is on record as “inhibited; also recorded: immunoreact”.
Take “PYLDDXQKKWQEEMEL (PYLDDFQKKWQEEMEL) [AI99-114]”: in experiment [1], the “immunoreactivity … in direct binding ELISA” value was “recognized by the antibody but with decreased specificity”. Also, the “immunoreactivity with MAB AI-4, competition of binding to Apo AI/HDL” value with MAB AI-4 was “partial reactivity; also recorded: immunoreacted”.
On to “PYLDDXQKKWQEEMELYRQKVEP (PYLDDFQKKWQEEMELYRQKVEP) [AI99-121]”, for which, in the experiment on MAB AI-4, the “immunoreactivity with MAB AI-4, competition of binding to Apo AI/HDL” value is “nearly as well as Apo AI/HDL; also recorded: competitively inhibit; also recorded: immunoreacts”. For the same substance, the “immunoreactivity with MAB AI-11, competition of binding to Apo AI/HDL” value in the experiment with MAB AI-11 was “does not bind; also recorded: not a competitive inhibitor”.
